In patent US20240158350A1, “ESTER ANALOGS OF PSILOCIN, PROCESSES FOR THE PREPARATION THEREOF, AND METHODS OF USE” (Invyxis, Inc., priority 2022, published 2024):
Like-named read-outs stand apart in the source and are kept apart here.

Legend:
[1] = IP-One incubation stability (cell-treated stimulation medium, LC-MS); assay type: in vitro ADME; settings: 2 μM, 60 min vs T0, 37° C., medium on CHO-K1 cells expressing 5-HT2A
Procedure: IP-One incubation. CHO-K1 cells expressing recombinant Serotonin receptor 5-HT2A (Perkin Elmer, Waltham, MA), were seeded in 96-well plates (˜80,000 cells/well) and treated with 28 μL (per well) of stimulation medium (IP-One HTRF® kit) containing test compounds (2 μM) for 1 hr in a CO2 incubator (5%) at 37° C. The cell-treated medium from 3 wells were pooled together to provide 40 μL for LC-MS analysis. Aliquots for each compound were collected at time zero (T0, 100% intact test compound) and 60-min. The incubated medium (40 μL) was quenched with 120 μL of acetonitrile containing 0.5 μM glyburide (IS), and the supernatant was collected by centrifugation (2500 rpm, 15 min.). LC-MS was performed using an Agilent MSD (electrospray in positive ionization) equipped with a Kinetic C18 reverse-column. The percent of test compound remaining is calculated using the ratio of the peak areas of intact test compound at 60 min. over T0. The percent of psilocin release is calculated by comparing the peak area of psilocin at 60 min. (for test compound) vs. peak area at T0 (2 μM psilocin). Results are summarized in Table 1, (rel to % parent detected; and % psilocin detected at 1 hr).

[2] = Stability in fasted state simulated gastric fluid (FaSSGF); assay type: in vitro ADME; settings: 37° C., 60 min vs T0
Procedure: Fasted state simulated gastric fluid (FaSSGF). FaSSGF was prepared according to the manufacturer instructions (Biorelevant, UK). Test compounds (2 μL of 200 μM solution) were added to a 96-well plate containing 198 μL FaSSGF per well. The mixture was incubation in a thermomixer at 37° C. for 60 min. Sample aliquots were removed (40 μL, from T0 and 60 min.) and quenched with acetonitrile containing 0.5 μM glyburide (IS), and the supernatant collected by centrifugation (2500 rpm, 15 min.). LC-MS was performed using an Agilent MSD (electrospray in positive ionization) equipped with a Kinetic C18 reverse-column. The percent of test compound remaining was calculated using the ratio of the peak area of intact test compound at 60 min. over T0. The percent of psilocin release was calculated by comparing the peak area of psilocin at 60 min, (for test compound) vs. peak area at T0 (2 μM psilocin).

[3] = molecular target: human serotonin 5HT2A receptor (Homo sapiens, UniProt P28223); test: 5HT2A receptor radioligand displacement assay; set-up: key to the marks not given beside the values; settings: displacement of [3H]-ketanserin or [3H]-LSD, HEK293 membranes
[4] = Single-dose oral pharmacokinetics in C57BL6 mice (plasma and brain); assay type: in vivo; settings: for Cmax: read-out: Parent PK Cmax
Procedure: The single-dose pharmacokinetics of test compounds were analyzed relative to control (psilocin) in C57BL6 mice via oral (PO) administration. Test compound was dissolved in DMSO and transferred to a 15-mL tube, followed by addition of Tween-80, PEG-400, and water to final volume. The resulting formulation (0.3 mg/mL compound, in DMSO (1%), Tween-80 (5%), and PEG-400 (25%) in water (69%)) was vortexed for 2 min. and mixed by inversion.
Male C57BL6 mice (3× per compound, (at a weight ˜20g)) received a single dose (oral) of test compound at 3.0 mg/kg. Blood samples were collected pre-dose and at 0.083, 0.25, 0.5, 1, 2, 4, 8, 24-hour post-dose to yield approximately 20 μL of pooled plasma (3× mice) per time point. Brain tissues were collected at 2- and 8-hr post-dose. Brain was flushed with saline solution using a perfusion needle through the ascending aorta of the ventricle to remove any remaining blood prior to collection. Plasma and brain homogenate samples were stored at −80° C. prior to extraction for LC-MS/MS analysis.
Samples were analyzed by LC-MS/MS to quantify the amounts of test compound and control (psilocin). The calculation of the pharmacokinetic (PK) parameters (AUCt, AUCinf, Cmax, Tmax, T1/2, and Kel) can be performed using a non-compartmental analysis (trapezoidal method).

[5] = male, C57BL6, mouse, parent compound in brain, 2 h post-dose, 3.0 mg/kg PO, read-out: Parent PK [brain] 2 h
[6] = male, C57BL6, mouse, parent compound in plasma, 3.0 mg/kg PO

human serotonin 5HT2A receptor, sequence (P28223 whole entry): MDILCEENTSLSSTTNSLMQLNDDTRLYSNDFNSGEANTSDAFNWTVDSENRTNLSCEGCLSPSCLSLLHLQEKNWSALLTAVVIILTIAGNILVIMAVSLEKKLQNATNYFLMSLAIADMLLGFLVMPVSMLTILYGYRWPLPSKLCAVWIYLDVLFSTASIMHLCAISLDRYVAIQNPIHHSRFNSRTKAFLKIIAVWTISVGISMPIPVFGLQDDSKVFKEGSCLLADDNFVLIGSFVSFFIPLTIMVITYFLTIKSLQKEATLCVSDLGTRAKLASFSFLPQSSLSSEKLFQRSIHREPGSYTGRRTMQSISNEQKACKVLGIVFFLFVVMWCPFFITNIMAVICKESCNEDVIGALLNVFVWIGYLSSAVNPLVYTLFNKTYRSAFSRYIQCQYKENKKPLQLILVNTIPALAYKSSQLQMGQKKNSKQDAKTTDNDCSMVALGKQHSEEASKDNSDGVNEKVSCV

SMILES | % parent compound [1] | % parent compound [2] | Activity relative to psilocin [3] | also measured
CN(C)CCc1c[nH]c2cccc(OC(=O)c3cccc(C(=O)Oc4cccc5[nH]cc(CCN(C)C)c45)c3)c12 [drawing 45] | 52.1% |  |  | 
CN(C)CCc1c[nH]c2cccc(OC(=O)CCCC(=O)Oc3cccc4[nH]cc(CCN(C)C)c34)c12 [drawing 52] |  | 94.5% |  | 
CN(C)CCc1c[nH]c2cccc(OC(=O)c3cccc(C(=O)Oc4cccc5[nH]cc(CCN(C)C)c45)c3)c12 [drawing 61] |  |  | +++ | 
CN(C)CCc1c[nH]c2cccc(OC(=O)c3ccccc3F)c12 [drawing 55] |  | 97.5% |  | 
CN(C)CCc1c[nH]c2cccc(OC(=O)C(C)(C)C(=O)Oc3cccc4[nH]cc(CCN(C)C)c34)c12 [drawing 59] |  |  | +++ | 
CN(C)CCc1c[nH]c2cccc(OC(=O)C(C)(C)C(=O)Oc3cccc4[nH]cc(CCN(C)C)c34)c12 [drawing 51] |  | 94.7% |  | 
CN(C)CCc1c[nH]c2cccc(OC(=O)C(C)(C)C(=O)Oc3cccc4[nH]cc(CCN(C)C)c34)c12 [drawing 43] | 86.8% |  |  | 
CN(C)CCc1c[nH]c2cccc(OC(=O)[C@H]3C[C@@H]3C(=O)Oc3cccc4[nH]cc(CCN(C)C)c34)c12 [drawing 46] | 76.1% |  |  | 
CN(C)CCc1c[nH]c2cccc(OC(=O)c3cccc(C(=O)Oc4cccc5[nH]cc(CCN(C)C)c45)c3)c12 [drawing 53] |  | 93.5% |  | 
CN(C)CCc1c[nH]c2cccc(OC(=O)CCCC(=O)Oc3cccc4[nH]cc(CCN(C)C)c34)c12 [drawing 44] | 71.5% |  |  | 
CN(C)CCc1c[nH]c2cccc(OC(=O)CCCC(=O)Oc3cccc4[nH]cc(CCN(C)C)c34)c12 [drawing 60] |  |  | +++ | 
CN(C)CCc1c[nH]c2cccc(OC(=O)c3ccc(Br)cc3)c12 [drawing 58] |  |  | ++ | 
CN(C)CCc1c[nH]c2cccc(O)c12 [Psilocin, 4-hydroxy-N,N-dimethyltryptamine] | 87.4% | 72.2% | ++ | psilocin in the brain at 8-h post-dose ([4]; 8-h post-dose): No psilocin in the brain was detected; psilocin plasma concentration (estimate) ([4]; estimate based on other pharmacokinetic data): ~5 ng/mL; concentration at 2 h ([4]; male, C57BL6, mouse, brain, oral, 3 mg/kg, 2-h post-dose, range over animals, read-out: Psilocin concentration in the brain): 40 to 78 ng/g; Kp at 2 h ([4]; male, C57BL6, mouse, brain, oral, 3 mg/kg, 2-h post-dose, with estimated plasma concentration of 5 ng/mL, read-out: mean brain/plasma (B/P) ratio): 11.2 ± 4.3; concentration at 2 h [4, 5]: 54 ng/mL; Cmax [4, 6]: ~5 ng/mL
CN(C)CCc1c[nH]c2cccc(OC(=O)[C@H]3C[C@@H]3C(=O)Oc3cccc4[nH]cc(CCN(C)C)c34)c12 [drawing 62] |  |  | +++ | 
CN(C)CCc1c[nH]c2cccc(OC(=O)c3ccccc3F)c12 [drawing 47] | 11.4% |  |  | 
CN(C)CCc1c[nH]c2cccc(OC(=O)[C@H]3C[C@@H]3C(=O)Oc3cccc4[nH]cc(CCN(C)C)c34)c12 [drawing 54] |  | 95.5% |  | 
CN(C)CCc1c[nH]c2cccc(OC(=O)C(C)(C)C(=O)Oc3cccc4[nH]cc(CCN(C)C)c34)c12 [Test Compound A, bis(3-(2-(dimethylamino)ethyl)-1H-indol-4-yl) 2,2-dimethylmalonate] |  |  |  | PK profile (absorption, elimination) ([4]; 3.0 mg/kg PO, in words): quick absorption of the compound, but with a long elimination phase; brain penetration of the parent compound ([4]; 3.0 mg/kg PO, in words): delayed brain penetration of the parent compound; concentration at 2 h [4, 5]: 0.5 ng/mL; AUC ([4]; male, C57BL6, mouse, parent compound in plasma, 3.0 mg/kg PO, read-out: Parent PK AUC): 39 ng·h/mL; Cmax [4, 6]: 4.2 ng/mL; Parent [brain] at 8 h ([4]; parent compound in brain, 8 h post-dose (footnote)): **[brain] at 8 h is 6 ng/mL.
CN(C)CCc1c[nH]c2cccc(OC(=O)CCC(=O)Oc3cccc4[nH]cc(CCN(C)C)c34)c12 [drawing 41] | 61.7% |  |  | 
CN(C)CCc1c[nH]c2cccc(OC(=O)c3ccc(Br)cc3)c12 [drawing 42] | 9.1% |  |  | 
CN(C)CCc1c[nH]c2cccc(OC(=O)CCCC(=O)Oc3cccc4[nH]cc(CCN(C)C)c34)c12 [Test Compound B, bis(3-(2-(dimethylamino)ethyl)-1H-indol-4-yl) glutarate] |  |  |  | PK profile (absorption, elimination) ([4]; 3.0 mg/kg PO, in words): good PK profile as a psilocin prodrug; parent compound detected in plasma or brain samples ([4]; 3.0 mg/kg PO, in words): no parent compound was detected in any of the plasma or brain samples; concentration at 2 h [4, 5]: 0 ng/mL; psilocin detected after administration of test compound ([4]; plasma and brain, in words): psilocin was detected in quantifiable amounts
CN(C)CCc1c[nH]c2cccc(OC(=O)CCC(=O)Oc3cccc4[nH]cc(CCN(C)C)c34)c12 [drawing 57] |  |  | +++ | 
CN(C)CCc1c[nH]c2cccc(OC(=O)CCC(=O)Oc3cccc4[nH]cc(CCN(C)C)c34)c12 [drawing 49] |  | 97.1% |  | 
CN(C)CCc1c[nH]c2cccc(OC(=O)c3ccc(Br)cc3)c12 [drawing 50] |  | 93.8% |  | 
CN(C)CCc1c[nH]c2cccc(OC(=O)c3ccccc3F)c12 [drawing 63] |  |  | ++ | 
